Laboratory results as given in patent publication US9890166B2, “Imidazopyrrolidine derivatives and their use in the treatment of disease” (NOVARTIS AG, priority 2013, dated 2018).

What was measured:
BRD4 (His-Brd4(44-477)) = BRD4 (His-Brd4(44-477)) (Homo sapiens (Human), UniProt O60885); assay: TR-FRET in-vitro binding assay for BRD4; settings: single determination or n ≧ 2 independent determinations, read-out: Biochemical IC50 BRD4
Description: (§1) TR-FRET In-Vitro Binding Assays for BRD2, BRD3, and BRD4:
(§2) All assays were performed in 384 well microtiter plates. Each assay plate contained 8-point serial dilutions for 40 test compounds, plus 16 high- and 16 low controls. Liquid handling and incubation steps were done on an Innovadyne Nanodrop Express equipped with a robotic arm (Thermo CatX, Perkin Elmer/Caliper Twister II) and an incubator (Liconic STX40, Thermo Cytomat 2C450). The assay plates were prepared by addition of 50 nl per well of compound solution in 90% DMSO HummingBird nanodispenser (Zinsser Analytic). […] Reactions were incubated at 30° C. for 35 minutes. […] After 35 minutes incubation at 30° C., plates were measured in a Perkin Elmer EnVision multilabel reader.
(§3) Preparation of Compound Dilutions
(§4) Test compounds were dissolved in DMSO (10 mM) and transferred into 1.4 mL flat bottom or V-shaped Matrix tubes carrying a unique 2D matrix. The stock solutions were stored at […] if not used immediately. For the test procedure the vials were defrosted and identified by a scanner whereby a working sheet was generated that guided the subsequent working steps.
(§5) Compound dilutions were made in 96 well plates. This format enabled the assay of maximally 40 individual test compounds at 8 concentrations (single points) including 4 reference compounds, if desired (known BET inhibitors from the prior art, for this and other assays of the type disclosed herein). The dilution protocol included the production of “pre-dilution plates”, “master plates” and “assay plates”.
(§6) Pre-Dilution Plates: 96 polypropylene well plates were used as pre-dilution plates. A total of 4 pre-dilution plates were prepared including 10 test compounds each on the plate positions A1-A10, one standard compound at A11 and one DMSO control at A12. All dilution steps were done on a HamiltonSTAR robot.
(§7) These plates were used directly for the assay which was performed in a total volume of 13.55 μL.

BRD2 (His-Brd2(60-472)) = BRD2 (His-Brd2(60-472)) (Homo sapiens (Human), UniProt P25440); assay: TR-FRET in-vitro binding assay for BRD2; settings: single determination or n ≧ 2 independent determinations, read-out: Biochemical IC50 BRD2
Description: as §1, §2, §3, §4, §5, §6, §7

BRD3 (His-Brd3(20-477)) = BRD3 (His-Brd3(20-477)) (Homo sapiens (Human), UniProt Q15059); assay: TR-FRET in-vitro binding assay for BRD3; settings: single determination or n ≧ 2 independent determinations, read-out: Biochemical IC50 BRD3
Description: as §1, §2, §3, §4, §5, §6, §7

[1] = target: CREBBP bromodomain (His-CREBBP(1081-1197)) (Homo sapiens (Human), UniProt Q92793); assay: AlphaScreen in-vitro binding assay for CREBBP; settings: single determination or n ≧ 2 independent determinations, read-out: Biochemical IC50 CREBBP
Description: AlphaScreen In-Vitro Binding Assay for CREBBP
In order to assess bromodomain selectivity, we set up a binding assay using the bromodomain encoded by the CREBBP gene. […] Reactions were incubated at 30° C. for 35 minutes. Subsequently 4.5 μl per well detection mix (50 mM HEPES, pH 7.5, 0.005% Tween20, 0.02% BSA, 150 mM NaCl, 45 μg/ml Ni-chelate acceptor beads, 45 μg/mIstreptavidin-donor beads) (Perkin Elmer)) were added. After 60 minutes incubation at room temperature, plates were measured in a Perkin Elmer EnVision multilabel reader. IC50 values were determined from percent inhibition values at different compound concentrations by non-linear regression analysis.
as §3, §4, §5, §6, §7

THP-1 cells = assay: Cell growth inhibition assay (CellTiter-Glo), THP-1; settings: for GI50: Homo sapiens, THP-1, read-out: THP-1 GI50; for THP-1 TGI: THP-1 cells, total growth inhibition, CellTiter-Glo;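 on all read-outs here: viability read as cellular ATP luminescence after 4 days, 3-fold dilution series from 10 µM, DMSO vehicle-treated cells taken as 100%, cell-free medium wells as −100%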
K-562 cells = assay: Cell growth inhibition assay (CellTiter-Glo), K-562; settings: for GI50: Homo sapiens, K562, read-out: K-562 GI50; for K-562 TGI: K-562 cells, total growth inhibition, CellTiter-Glo;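 on all read-outs here: cellular ATP measured by luminescence after 4 days of exposure, 3-fold dilution series from 10 µM, DMSO vehicle-treated cells define 100%, cell-free medium wells −100%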
MV-4-11 cells = assay: Cell growth inhibition assay (CellTiter-Glo), MV-4-11; settings: for GI50: Homo sapiens, MV4-11, read-out: MV-4-11 GI50; for MV-4-11 TGI: MV-4-11 cells, total growth inhibition, CellTiter-Glo;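 on all read-outs here: cellular ATP luminescence after 4 days, 3-fold dilution series from 10 µM top dose, vehicle (0.1% DMSO) set to 100%, cell-free medium set to −100%, day 0 corrected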

BRD2 (His-Brd2(60-472)), sequence (P25440 60-472): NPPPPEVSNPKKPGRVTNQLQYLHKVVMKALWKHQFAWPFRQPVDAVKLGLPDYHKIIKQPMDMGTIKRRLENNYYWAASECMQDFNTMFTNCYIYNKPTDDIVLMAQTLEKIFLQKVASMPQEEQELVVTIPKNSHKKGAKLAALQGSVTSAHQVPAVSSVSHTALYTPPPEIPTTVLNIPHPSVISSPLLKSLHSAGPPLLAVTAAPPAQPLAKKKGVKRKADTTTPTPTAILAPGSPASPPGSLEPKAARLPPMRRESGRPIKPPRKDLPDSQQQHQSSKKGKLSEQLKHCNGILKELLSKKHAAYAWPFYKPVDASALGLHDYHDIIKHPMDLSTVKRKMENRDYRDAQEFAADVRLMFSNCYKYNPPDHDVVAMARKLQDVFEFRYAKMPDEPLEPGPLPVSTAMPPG
BRD3 (His-Brd3(20-477)), sequence (Q15059 20-477): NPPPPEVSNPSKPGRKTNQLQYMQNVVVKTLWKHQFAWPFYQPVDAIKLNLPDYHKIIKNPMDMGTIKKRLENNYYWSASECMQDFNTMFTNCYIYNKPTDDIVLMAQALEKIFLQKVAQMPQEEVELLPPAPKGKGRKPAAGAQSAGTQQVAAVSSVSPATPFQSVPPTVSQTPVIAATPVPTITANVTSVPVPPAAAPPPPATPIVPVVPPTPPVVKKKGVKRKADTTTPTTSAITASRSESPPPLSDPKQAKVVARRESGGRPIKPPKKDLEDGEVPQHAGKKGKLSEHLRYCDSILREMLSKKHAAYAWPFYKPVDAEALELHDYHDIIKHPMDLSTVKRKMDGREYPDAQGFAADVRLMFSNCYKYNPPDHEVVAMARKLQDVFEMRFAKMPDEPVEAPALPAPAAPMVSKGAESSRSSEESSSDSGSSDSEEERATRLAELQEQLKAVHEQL
CREBBP bromodomain (His-CREBBP(1081-1197)), sequence (Q92793 1081-1197): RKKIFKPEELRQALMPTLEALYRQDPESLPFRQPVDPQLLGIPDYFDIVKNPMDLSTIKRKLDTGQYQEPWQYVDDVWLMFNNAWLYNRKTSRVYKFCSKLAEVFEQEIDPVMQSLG

Compound	IC50 (BRD4 (His-Brd4(44-477))) [µM]	IC50 (BRD2 (His-Brd2(60-472))) [µM]	IC50 (BRD3 (His-Brd3(20-477))) [µM]	IC50 [1] [µM]	GI50 (THP-1 cells) [µM]	GI50 (K-562 cells) [µM]	GI50 (MV-4-11 cells) [µM]	THP-1 TGI (THP-1 cells) [µM]	K-562 TGI (K-562 cells) [µM]	MV-4-11 TGI (MV-4-11 cells) [µM]
COc1ncccc1-c1nc2c(n1C(C)C)C(c1ccc(Cl)cc1)N(c1cc(C)c3nnc(CF)n3c1)C2=O (centres unmarked) [Example 89, 6-(4-chlorophenyl)-5-(3-(fluoromethyl)-8-methyl-[1,2,4]triazolo[4,3-a]pyridin-6-yl)-1-isopropyl-2-(2-methoxypyridin-3-yl)-5,6-dihydropyrrolo[3,4-d]imidazol-4(1H)-one]	0.015	0.035	0.013	8.35	0.0149	0.0636	0.0103	0.04045	>10	0.0208
CCn1c(C)nc2c1[C@@H](c1ccc(Cl)cc1)N(c1cc(C)c3nnn(C)c3c1)C2=O [Example 120, (R)-6-(4-chlorophenyl)-5-(3,7-dimethyl-3H-benzo[d][1,2,3]triazol-5-yl)-1-ethyl-2-methyl-5,6-dihydropyrrolo[3,4-d]imidazol-4(1H)-one]	0.0205	0.0355	0.0295	5.13						
Cc1cc(N2C(=O)c3nc(C4=CCOC4)n(C(C)C)c3C2c2ccc(Cl)cc2)cn2c(CF)nnc12 (centres unmarked) [Example 92, 6-(4-chlorophenyl)-2-(2,5-dihydrofuran-3-yl)-5-(3-(fluoromethyl)-8-methyl-[1,2,4]triazolo[4,3-a]pyridin-6-yl)-1-isopropyl-5,6-dihydropyrrolo[3,4-d]imidazol-4(1H)-one]	< 0.011	0.027	0.027	5.8	0.0239	0.11	0.0153	0.0784	>10	0.03365
Cc1cc(N2C(=O)c3nc(C4CC4)n(C(C)(C)C)c3C2c2ccc(Cl)cc2)cn(C)c1=O (centres unmarked) [Example 33, 1-(tert-butyl)-6-(4-chlorophenyl)-2-cyclopropyl-5-(1,5-dimethyl-6-oxo-1,6-dihydropyridin-3-yl)-5,6-dihydropyrrolo[3,4-d]imidazol-4(1H)-one]	0.1	0.065	0.066	0.51						
COc1ncccc1-c1nc2c([nH]1)[C@@H](c1ccc(Cl)cc1)N(c1cc(C)c3nnc(C)n3c1)C2=O [Example 142, (R)-6-(4-chlorophenyl)-5-(3,8-dimethyl-[1,2,4]triazolo[4,3-a]pyridin-6-yl)-2-(2-methoxypyridin-3-yl)-5,6-dihydropyrrolo[3,4-d]imidazol-4(1H)-one]	0.04	0.096	0.036	1.75						
CCn1c(C)nc2c1C(=O)N(c1cc(C)c3nnn(C)c3c1)[C@@H]2c1ccc(Cl)cc1 [Example 122, (R)-6-(4-chlorophenyl)-5-(3,7-dimethyl-3H-benzo[d][1,2,3]triazol-5-yl)-3-ethyl-2-methyl-5,6-dihydropyrrolo[3,4-d]imidazol-4(3H)-one]	0.019	0.0215	0.026	2.62						
CC(C)n1c(-c2ccccn2)nc2c1C(c1ccc(Cl)cc1)N(c1ccc(=O)n(C)c1)C2=O (centres unmarked) [Example 20, 6-(4-chlorophenyl)-1-isopropyl-5-(1-methyl-6-oxo-1,6-dihydropyridin-3-yl)-2-(Pyridin-2-yl)-5,6-dihydropyrrolo[3,4-d]imidazol-4(1H)-one]	0.63	0.71	0.61	24.6						
COc1ncccc1-c1nc2c([nH]1)C(c1ccc(Cl)cc1)N(c1cc(C)c3nnc(C)n3c1)C2=O (centres unmarked) [Example 123, 6-(4-chlorophenyl)-5-(3,8-dimethyl-[1,2,4]triazolo[4,3-a]pyridin-6-yl)-2-(2-methoxypyridin-3-yl)-5,6-dihydropyrrolo[3,4-d]imidazol-4(1H)-one]	0.065	0.097	0.087	5.5						
COc1ncccc1-c1nc2c(n1C(C)C)C(c1ccc(Cl)cc1)N(c1cc(C)c3nnn(C)c3c1)C2=O (racemic) [Example 77, 6-(4-chlorophenyl)-5-(1,4-dimethyl-1H-benzo[d][1,2,3]triazol-6-yl)-1-isopropyl-2-(2-methoxypyridin-3-yl)-5,6-dihydropyrrolo[3,4-d]imidazol-4(1H)-one]	< 0.024	0.052	0.039		0.00794	0.0215	0.00493	0.0217	>10	0.00936
COc1ncccc1-c1nc2c(n1C(C)C)C(=O)N(c1cc(C)c(=O)n(C)c1)C2c1ccc(Cl)cc1 (centres unmarked) [Example 44, 6-(4-chlorophenyl)-5-(1,5-dimethyl-6-oxo-1,6-dihydropyridin-3-yl)-3-isopropyl-2-(2-methoxypyridin-3-yl)-5,6-dihydropyrrolo[3,4-d]imidazol-4(3H)-one]	0.039	0.033	0.039	1						

Continued, in another order:

IC50 (BRD4 (His-Brd4(44-477))) [µM]	IC50 (BRD2 (His-Brd2(60-472))) [µM]	IC50 (BRD3 (His-Brd3(20-477))) [µM]	IC50 [1] [µM]	GI50 (THP-1 cells) [µM]	GI50 (K-562 cells) [µM]	GI50 (MV-4-11 cells) [µM]	Compound	THP-1 TGI (THP-1 cells) [µM]	K-562 TGI (K-562 cells) [µM]	MV-4-11 TGI (MV-4-11 cells) [µM]
0.12	0.092	0.1	1				Cc1cc(N2C(=O)c3nc(-c4ccc[nH]4)n(C(C)C)c3C2c2ccc(Cl)cc2)cn(C)c1=O (centres unmarked) [Example 30, 6-(4-chlorophenyl)-5-(1,5-dimethyl-6-oxo-1,6-dihydropyridin-3-yl)-1-isopropyl-2-(1H-pyrrol-2-yl)-5,6-dihydropyrrolo[3,4-d]imidazol-4(1H)-one]			
0.772	1.09	0.84	34.8				CC(C)n1c(-c2ccnn2C)nc2c1C(c1ccc(Cl)cc1)N(c1ccc(=O)n(C)c1)C2=O (centres unmarked) [Example 21, 6-(4-chlorophenyl)-1-isopropyl-2-(1-methyl-1H-pyrazol-5-yl)-5-(1-methyl-6-oxo-1,6-dihydropyridin-3-yl)-5,6-dihydropyrrolo[3,4-d]imidazol-4(1H)-one]			
0.495	0.607	0.603	> 37				CC(C)n1c(-c2ccn(C)n2)nc2c1C(c1ccc(Cl)cc1)N(c1ccc(=O)n(C)c1)C2=O (centres unmarked) [Example 22, 6-(4-chlorophenyl)-1-isopropyl-2-(1-methyl-1H-pyrazol-3-yl)-5-(1-methyl-6-oxo-1,6-dihydropyridin-3-yl)-5,6-dihydropyrrolo[3,4-d]imidazol-4(1H)-one]			
0.11	0.081	0.1	0.8				Cc1ncc(-c2nc3c(n2C(C)C)C(c2ccc(Cl)cc2)N(c2cc(C)c(=O)n(C)c2)C3=O)s1 (centres unmarked) [Example 29, 6-(4-chlorophenyl)-5-(1,5-dimethyl-6-oxo-1,6-dihydropyridin-3-yl)-1-isopropyl-2-(2-methylthiazol-5-yl)-5,6-dihydropyrrolo[3,4-d]imidazol-4(1H)-one]			
0.0425	0.03	0.0415	0.455				Cc1cc(N2C(=O)c3nc(-c4nccs4)n(C(C)C)c3[C@H]2c2ccc(Cl)cc2)cn(C)c1=O [Example 24, (R)-6-(4-chlorophenyl)-5-(1,5-dimethyl-6-oxo-1,6-dihydropyridin-3-yl)-1-isopropyl-2-(thiazol-2-yl)-5,6-dihydropyrrolo[3,4-d]imidazol-4(1H)-one]			
